Tests used:
[1] = Cytotoxicity against human U2OS cells assessed as reduction in cell viability after 96 hrs; format: cell-based
Trypanosoma cruzi = test: Antimicrobial activity against Trypanosoma cruzi Y infected in human U2OS cells after 96 hrs by HCS assay; format: functional, organism-based
[2] = Selectivity index, ratio of CC50 for human U2OS cells to EC50 for Trypanosoma cruzi Y infected in human U2OS cells; format: toxicity, cell-based; details: read-out: Ratio CC50/EC50

EC50 (Trypanosoma cruzi; read-out: EC50) | EC50 (Trypanosoma cruzi; read-out: pEC50 (converted)) | Structure (SMILES) | CC50 at 96 h ([1]; read-out: CC50) | CC50 at 96 h ([1]; read-out: pCC50 (converted)) | selectivity ratio [2]
13.3 µM | 13.2 µM | COc1ccc2c(c1)cc(C(=O)NC(Cn1ccnc1)c1ccccc1)n2C (centres undefined) | 0.62 µM | 0.617 µM | 
86 µM | 85.1 µM | COc1cccc(-c2noc(-c3cccnc3)n2)c1 | 106 µM |  | 1.2
0.3 µM | 0.257 µM | O=C(NC(Cn1ccnc1)c1ccccc1)c1ccc(-n2cnnn2)cc1 (centres undefined) | 33.6 µM | 35.5 µM | 137
> 200 µM | > 200 µM | CC(C)COc1ccc(CN(Cc2ccncc2)S(=O)(=O)c2cccc(F)c2)cc1 | > 200 µM | 200 µM | 
4.2 µM | 4.17 µM | Clc1ccc(-c2csc(-c3cccnc3)n2)cc1 | > 200 µM |  | > 48
> 200 µM | > 200 µM | O=C(NC(Cn1ccnc1)c1ccccc1)c1csc(-c2cccs2)n1 (centres undefined) | > 200 µM | 200 µM | 
> 200 µM |  | Cc1ncsc1CCC(=O)NC(Cn1ccnc1)c1ccccc1 (centres undefined) | > 200 µM |  | 
7 µM | 6.92 µM | Cc1ccc(-n2c(SCC(=O)N3CCN(c4ccccc4)CC3)nnc2-c2ccncc2)cc1Cl | 21.1 µM |  | 3
> 200 µM |  | CC(Oc1ccc(-c2ccccc2)cc1)C(=O)Nc1ccc(S(=O)(=O)Nc2nccs2)cc1 (centres undefined) | > 200 µM |  | 
0.4 µM | 0.417 µM | COc1ccc(C2CC(=O)C3=C(C2)NC(C)=C(C(=O)OCCc2ccccc2)C3c2ccncc2)cc1 (centres undefined) | 19.3 µM |  | 46.5
> 200 µM |  | Clc1ccc(Cc2nn3c(CN4CCN(c5ccccc5)CC4)nnc3s2)cc1 | > 200 µM |  | 
109 µM | 110 µM | CC1Cc2ccccc2N1C(=O)CSc1nnnn1-c1ccccc1 (centres undefined) | > 200 µM |  | > 1.8
36.9 µM | 37.2 µM | Cc1nnc(SCC(=O)N2c3ccccc3CC2C)n1-c1ccccc1 (centres undefined) | 155 µM |  | 4.2
0.5 µM | 0.479 µM | COc1ccc(S(=O)(=O)N(Cc2ccncc2)Cc2ccc(OCC(C)C)cc2)cc1OC | 21.7 µM | 21.9 µM | 45.7
149 µM |  | C=CCSc1nc(-c2ccc(OC)cc2)n[nH]1 | 195 µM |  | 1.3
2.7 µM | 2.69 µM | Cc1ccc(-c2csc(-c3cccnc3)n2)cc1C | 40.8 µM |  | 15.1
> 200 µM | > 200 µM | O=C(COc1ccc(-c2ccccc2)cc1)N1CCN(S(=O)(=O)c2ccc(F)cc2)CC1 | > 200 µM | 200 µM | 
0.7 µM | 0.724 µM | CC(C)COc1ccc(CN(Cc2ccncc2)S(=O)(=O)c2ccc(F)cc2F)cc1 | > 200 µM | 200 µM | > 274
2.7 µM |  | CC(=O)Nc1ccc(Cl)c(C(=O)NC(Cn2ccnc2)c2ccccc2)c1 (centres undefined) | > 200 µM |  | > 72.8
> 200 µM | > 200 µM | CC1=C(C(=O)OCCc2ccccc2)C(c2ccncc2)C2=C(CC(c3ccccc3)CC2=O)N1 (centres undefined) | > 200 µM |  | 

EC50 (Trypanosoma cruzi; read-out: EC50) | EC50 (Trypanosoma cruzi; read-out: pEC50 (converted)) | Structure (SMILES) | CC50 at 96 h ([1]; read-out: CC50) | CC50 at 96 h ([1]; read-out: pCC50 (converted)) | selectivity ratio [2]
3.1 µM |  | O=C(Cn1ccnc1[N+](=O)[O-])NCc1ccccc1 [BENZNIDAZOLE] | > 200 µM |  | > 128
> 200 µM | > 200 µM | c1cncc(-c2nc(-c3cccs3)no2)c1 | 66.3 µM |  | < 0.3
18.9 µM |  | O=C(N/C(=C/c1cccnc1)c1nc2ccccc2[nH]1)c1cccc(Br)c1 | 47.4 µM |  | 2.5
> 200 µM |  | Nc1ncc(-c2nc(-c3cccnn3)no2)c(-c2ccccc2)n1 | 99.7 µM |  | < 0.5
> 200 µM | > 200 µM | Cn1c(SCC(=O)N2CCN(c3ccccc3)CC2)nnc1-c1ccc(Br)cc1 | > 200 µM |  | 
> 200 µM |  | Cc1nnc(-c2cccc(-c3ccnc4[nH]ccc34)c2)s1 | 127 µM |  | < 0.6
1.2 µM |  | Cc1nccn1-c1ccc(Cn2ccnc2-c2cc3ccccc3[nH]c2=O)cc1 | 52.9 µM |  | 43.9
0.3 µM | 0.257 µM | O=C(NC(Cn1ccnc1)c1ccccc1)c1cccc(-n2cccn2)c1 (centres undefined) | 11.8 µM | 11.7 µM | 46.3
0.4 µM | 0.38 µM | CC(C)COc1ccc(CN(Cc2ccncc2)S(=O)(=O)c2ccc(F)c(F)c2)cc1 | 11.5 µM | 11.5 µM | 30.6
2.7 µM | 2.69 µM | COc1ccc(N2CCN(C(=O)CN(Cc3ccccc3C)S(=O)(=O)c3ccc(Cl)cc3)CC2)cc1 | 73.9 µM | 74.1 µM | 27.7
> 200 µM |  | Oc1ccccc1-c1n[nH]c(-c2ccccn2)n1 | > 200 µM |  | 
> 200 µM | > 200 µM | Cn1c(SCC(=O)N2CCN(c3ccccc3F)CC2)nnc1-c1cccnc1 | 198 µM |  | < 1
20.1 µM | 20 µM | O=C(CSc1nc(-c2ccncc2)n[nH]1)N1CCN(c2ccccc2)CC1 | > 200 µM |  | > 9.9
191 µM |  | Cc1ccc(N2C(=O)C(CC(=O)Nc3ccccc3)N(Cc3cccnc3)C2=O)cc1 (centres undefined) | > 200 µM |  | > 1
38.3 µM |  | COc1ccc(N2CCN(C(=O)COc3ccc(C4CCCCC4)cc3)CC2)c([N+](=O)[O-])c1 | 49.6 µM |  | 1.3
> 200 µM |  | N#Cc1ccc(-c2ccc(OCC(=O)N3CCN(c4cccc(Cl)c4)CC3)cc2)cc1 | > 200 µM |  | 
3.4 µM |  | c1cncc(-c2nc(-c3cnccn3)n[nH]2)c1 | 1.5 µM |  | 0.4
0.8 µM |  | O=C(CC(Nc1ccc2ccccc2c1)c1ccncc1)c1ccc(Br)cc1 (centres undefined) | > 200 µM |  | > 258
18.6 µM | 18.6 µM | Cc1ccccc1-c1noc(-c2cccnc2)n1 | > 200 µM |  | > 10.8

Reference: ChEMBL document CHEMBL4411286, “Discovery of new potent hits against intracellular Trypanosoma cruzi by QSAR-based virtual screening” (Eur J Med Chem, 2019)
